Assay results taken from patent US20040106651A1, “3,4-diaminopyriding tartrate and phosphate, pharmaceutical compositions and uses thereof” (priority 2001, published 2004).

Experiment: Stability study in hard gelatin capsules under ICH storage conditions
Format: physicochemical
Conditions: for Stability formulated in hard gelatin capsules: conclusion from tables I and II; for Stability under the storage conditions in accordance with the international recommendations: general statement
Method: 3,4-DAP tartrate, as prepared above in example 1, was introduced into hard gelatin capsules made of gelatin of size No. 3 in a proportion of 10 mg (expressed as weight of 3,4-DAP in the free base form) per hard gelatin capsule (Hard gelatin capsules A).
In the same way and by way of comparison, hard gelatin capsules made of gelatin of size No. 3 including 10 mg of 3,4-DAP per hard gelatin capsule were prepared (Hard gelatin capsules B).
A stability study on 3,4-DAP tartrate and on 3,4-DAP, introduced respectively into hard gelatin capsules A and B, was subsequently carried out.
This study was carried out under the conditions recommended by the international recommendations for the study of the stability of active principles (International Conference on Harmonization, Draft Guideline on Stability Testing of New Drug and Product, November 1999, CPMP/ICH/2736/99).

Nc1ccncc1N.O=C(O)C(O)C(O)C(=O)O (centres unmarked) [3,4-DAP tartrate, 3,4-diaminopyridine Tartrate]
Stability formulated in hard gelatin capsules: great stability | Stability under the storage conditions in accordance with the international recommendations: very high stability

Nc1ccncc1N.O=P(O)(O)O [3,4-DAP phosphate, 3,4-diaminopyridine Phosphate]
Stability under the storage conditions in accordance with the international recommendations: very high stability

Nc1ccncc1N [3,4-DAP, 3,4-diaminopyridine, reference compound]
Stability formulated in hard gelatin capsules: unstable | Stability under the storage conditions in accordance with the international recommendations: unstable
